According to PubChem BioAssay AID488808 (NMMLSC, 2010):
Calls of active or inactive are those of the source.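 The calls were made as follows: active = EC50 at or below 33 microM; inactive = the rest.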

tested on: S. cerevisiae RPL19A-GFP strain, flow cytometry fluorescence, 3 h; experiment: RPL19A-GFP modulators, KU analog potency, SAR follow-up, cell-based, S. cerevisiae, flow cytometry, KU SAR compounds (AID 488808)

Structure (SMILES)	EC50
COc1ccc(C(=O)NC(=S)NNC(=O)c2cnccn2)cc1	0.71 µM
Cc1cc(C(=O)Nc2nc(-c3ccccn3)cs2)ccc1[N+](=O)[O-]	85.3 µM (inactive)
CSc1nnc2c3cc(F)ccc3n(C)c2n1	1.14 µM
CNc1nc(N)c([N+](=O)[O-])c(Nc2cc(OC)ccc2OC)n1	3.04 µM
COc1ccc(/C=C/C(=O)NC(=S)NNC(=O)c2cnccn2)cc1	11.4 µM
CC(C)(C)n1nc(-c2ccc(Cl)cc2)c2c(N)ncnc21	0.42 µM
C[C@@H]1C[C@@H]([C@H](O)CC2CC(=O)NC(=O)C2)C(=O)[C@@H](C)C1	0.87 µM
O=C(OCn1ncc(Br)c(Br)c1=O)c1c(F)cccc1F	3.55 µM
CCC(C)Nc1nc(N)c([N+](=O)[O-])c(Nc2cccc(F)c2)n1 (configuration not stated)	50 µM (inactive)
CN(C)CCCNc1nc(N)c([N+](=O)[O-])c(Nc2cccc(F)c2)n1	106 µM (inactive)
O=C(OCC(=O)N1CCN(C(=O)c2ccco2)CC1)c1cc(-c2cccc(Br)c2)nc2ccccc12	8.08 µM
Cc1ccc(-c2nn(C(C)(C)C)c3ncnc(N)c23)cc1	1.19 µM
O=C(OCC(=O)N1CCN(C(=O)c2ccco2)CC1)c1cc(-c2ccc(F)cc2)nc2ccccc12	3.01 µM
O=[N+]([O-])c1ccc(O)c2ncccc12	25.4 µM
Cc1cc(C(=O)COC(=O)c2ccc[nH]c2=O)c(C)n1-c1ccccc1F	3.28 µM
Nc1cc(Oc2cccc(Cl)c2)nc(NCc2ccccc2)n1	252 µM (inactive)
O=c1cc(CSc2ccc(Cl)cc2)nc(-c2ccccn2)[nH]1	1.27 µM
CC(C)(C)C(=O)NC(=S)NNC(=O)c1ccc(-c2ccccc2)cc1	30.2 µM
O=C(NC(=S)NNC(=O)c1cnccn1)c1ccc(F)cc1	3.66 µM

Structure (SMILES)	EC50
Cc1ccc(NC(=O)c2cc(N3C(=O)C=CC3=O)ccc2N2CCOCC2)cc1Cl	0.78 µM
Nc1cc(Nc2cccc(F)c2)nc(NCc2ccccc2)n1	292 µM (inactive)
Clc1ccc(N=c2ssnc2Cl)cc1	2.03 µM
CC(Oc1ccc(Cl)cc1)C(=O)NNC(=S)NC(=O)c1ccco1 (configuration not stated)	3.54 µM
Cc1ccc2nc(Cl)c3nnnn3c2c1	2.11 µM
O=[N+]([O-])c1cc(S(=O)(=O)C(F)(F)F)ccc1Sc1nc2ccccc2s1	17.3 µM
O=C(OCn1ncc(Br)c(Br)c1=O)c1ccc(F)cc1	4.53 µM
CC1=NN(c2ccccc2)C(=O)C1C(c1ccccc1[N+](=O)[O-])C(C#N)C#N (configuration not stated)	3.65 µM
CSC1=NS(=O)(=O)c2c(C)nn(C)c2S1	175 µM (inactive)
c1ccc(-c2cccc(-c3ccccn3)n2)nc1	49.9 µM (inactive)
C[C@H]1C[C@@H](C)C(=O)[C@@H]([C@H](O)CC2CC(=O)NC(=O)C2)C1	0.42 µM
CCN(CC)C(=O)Oc1ccnc2cc(Cl)ccc12	119 µM (inactive)
CCOC(=O)CS(=O)(=O)c1nc(-c2ccccc2)cc(C(F)(F)F)n1	30.2 µM
Cc1ccc(S(=O)(=O)c2ncccc2[N+](=O)[O-])cc1	68.6 µM (inactive)
CCOC(=O)c1c(C)oc2c1c(C(c1cccnc1)N1CCOCC1)c(O)c1ccccc12 (configuration not stated)	2.78 µM
Cc1ccc(C(=O)NNC(=S)NC(=O)COc2ccccc2)cc1	52.7 µM (inactive)
CCc1ccc(OCC(=O)NNC(=S)NC(=O)C2CC2)c(Br)c1	2.74 µM
COc1ccc([N+](=O)[O-])c(S(=O)(=O)c2ccc(Cl)cc2)n1	4.49 µM
CCOC(=O)CSC1=NC(=O)/C(=C\c2ccc(Cl)cc2)S1	16 µM

Structure (SMILES)	EC50
O=S(=O)(CCN(CCS(=O)(=O)C(F)(F)F)CC1CCCO1)C(F)(F)F (configuration not stated)	21.7 µM
O=C(Oc1c(Cl)cc(Cl)c2cccnc12)c1cccc([N+](=O)[O-])c1	59.9 µM (inactive)
CN1CCN(C(=O)c2cc(COc3c(F)cccc3F)on2)CC1c1ccccc1 (configuration not stated)	58.4 µM (inactive)
CNc1nc(N)c([N+](=O)[O-])c(Nc2cccc(F)c2)n1	5.19 µM
CC(C)(C)n1nc(-c2ccc(F)cc2)c2c(N)ncnc21	1.01 µM
CCOC(=O)CCS(=O)(=O)c1nc(-c2ccccc2)cc(C(F)(F)F)n1	47.9 µM (inactive)
COc1ccc([N+](=O)[O-])c(S(=O)(=O)c2ccccc2)n1	35.4 µM (inactive)
CC(C)(C)C(=O)C(Cl)C(=O)Nc1ccccc1 (configuration not stated)	4.18 µM
O=C(Oc1ccnc2cc(Cl)ccc12)N1CCCCCC1	16.7 µM
Cc1nn2c(-c3ccncc3)nnc2c2ccccc12	4.6 µM
O=[N+]([O-])c1ccc(S(=O)(=O)c2cccc(C(F)(F)F)c2)nc1	1.37 µM
O=[N+]([O-])c1cc(Cl)c2cccnc2c1O	27.2 µM
Cc1ccc(S(=O)(=O)c2ccc([N+](=O)[O-])cn2)cc1	3.77 µM
Cn1ncc(S(=O)(=O)Cc2ccccc2)c(Cl)c1=O	2.73 µM
C/C(=N\NC(=O)c1ccc(C(C)(C)C)cc1)c1ccccn1	293 µM (inactive)
Cc1ccc(NC(=O)c2ccc(Cl)c(N3C(=O)C=CC3=O)c2)cc1	3.03 µM
CC(=O)Nc1ncnc2c1c(-c1ccc(Cl)cc1)nn2C(C)(C)C	11.5 µM
CC(C)(C)c1ccc(NC(=O)COC(=O)c2ccc([N+](=O)[O-])s2)cc1	2.02 µM
COC(=O)CCS(=O)(=O)c1nc(-c2ccccc2)cc(C(F)(F)F)n1	66.5 µM (inactive)
